# Experimental data reported in US20040115801A1, “Model epithelial cell cultures” (KINETANA GROUP INC., priority 2002, published 2004).
# Read-outs that look alike come from different tables or passages of the source.
# Columns and labels:
# [1] = test system: cell layer of the invention; test: Ginkgo extract ingredient profiles, apical vs basal side of the cell layer; format: in vitro ADME, human
# Description: FIG. 8. Representative chromatogram of intact flavonol glycosides determined in fluid from the apical side of the cell layer 60 minutes after application of standardized ginkgo extract (equivalent of 10 mg extract).
# FIG. 9. Representative chromatogram of intact flavonol glycosides determined in fluid from the basal side of the cell layer 60 minutes after application of standardized ginkgo extract (equivalent of 10 mg extract).
# FIG. 10. Representative chromatogram of ginkgolides determined in fluid from the apical side of the cell membrane 60 minutes after application of standardized ginkgo extract (equivalent of 20 mg extract).
# FIG. 11. Representative chromatogram of ginkgolides determined in fluid from the basal side of the cell layer 60 minutes after application of standardized ginkgo extract (equivalent of 400 mg extract).
# In some embodiments, compositions for processing in accordance with the methods of the invention may include natural substances, such as crude extracts or formulations from natural products such as plants, which may be dissolved or suspended in an aqueous solution, such as a pH buffered solution or an artificial intestinal fluid. In alternative embodiments, a sample of these substances may be treated with artificial gastric juices to test prior to processing with the cell layers of the invention, for example to test for potential decomposition of ingredients under acidic conditions. In some embodiments, a known concentration of the solution or composition for processing, in either buffered solution or artificial intestinal fluid, may be applied to the apical or first side of the cell layer (membrane). Subsequently, one or more samples may be collected from the basal or second side of the cell layer, which may for example contain a cell culture medium or human plasma or components of human plasma such as albumin. In alternative embodiments, samples may be taken from the apical and basal sides for ingredient identification and/or quantification. Common analytical approaches such as high performance liquid chromatography (HPLC), mass spectrometry (MS), gas chromatography (GC), LC/MS, or GC/MS may then be used for the identification or quantification of the components present in the physiologically modified composition.
# Although the invention may be used to conduct permeability screening in a manner similar to how Caco-2 the industry standard is used, it has a unique and novel application in identifying absorbable active ingredients in natural health products (or natural products or nutraceuticals or botanicals or herbals or dietary supplements) or any products that contain mixtures of ingredients of interest (as marker substances or active ingredients) or botanicals. The idea is as follows. Similar to pharmaceutical development, components are not considered active unless they are absorbed into the blood stream. A number of methods have been developed to measure the activities of botanical extracts; very few have measured the active components, let alone absorbable components that are active. It has been shown time and again that marker components that have in vitro activities are not absorbed. The active ingredient profile determined using in vitro methods is usually erroneous; this is particularly true for the proportion of the ingredients required because the absorption of individual components is potentially different. A good example is the determination of the ingredient profiles of Ginkgo biloba. People think that the ratios of the ingredients in the herb are important (See FIGS. 8, 10, Tables 3, 4, apical side ratios). But it is only the absorbed ingredients that can have activity and not all ingredients are absorbed or absorbed at the same rate. Therefore, the profiles of absorbed ingredients will differ from the profiles of ingredients in the product, and it is the absorbed ingredient profiles that are biologically most relevant. […]
# [2] = test system: SCBN cells; test: TEER of SCBN cell layers in different culture conditions; format: cell-based, human; conditions: SCBN cells on rat-tail collagen, supplemented base medium; day 3 (48 hours after medium change)
# Description: FIG. 1: illustrates the TEER values of SCBN cells in different culture conditions. TEER measurement was conducted by using EVOM voltmeter from World Precision Instrument.
# TEER values may be assayed using any conventional equipment capable of measuring electrical resistance, such as […] from World Precision Instruments.
# (§1) To assay the structure of microvilli and to measure TEER, SCBN cells were cultured with DMEM media supplemented with FBS and collected at 24 hours post confluence. Harvested cells were seeded at the density of 1E5 cells/well in Falcon multiple insert plates (0.31 cm2/well). […] Forty-eight hours after medium change, SCBN cells were processed for SEM examination following conventional SEM sample preparation. Assessments of microvilli structure were made from SEM images.
# [3] = test system: SCBN cells; test: Microvilli structure of SCBN cells by SEM; format: cell-based, human; conditions: SEM 48 hours after medium change; for length of microvilli: 5 μM Ro31-8220 and/or 5 mM sodium butyrate in base medium
# Description: as §1
# [4] = test system: SCBN cells; test: Enzyme expression in SCBN cell lysate; format: cell-based, human; conditions: 5 μM Ro 31-8220 alone
# Description: FIG. 2: illustrates the expression of enzymes in SCBN cells cultured under culture conditions of the invention. Enzyme activity is expressed as milliunit per mg of protein. One unit equals the digestion of one μmole of substrate per minute at 37° C. AP: Alkaline phosphatase; DPP: dipeptidylpeptidase-IV; APN: aminopeptidase N; APA: aminopeptidase A.
# To assay patterns of enzyme expression, SCBN cells were cultured with DMEM media supplemented with FBS and collected at 24 hours post confluence. SCBN cells were seeded with DMEM supplemented with FBS at 1E5 cells/well in non-coated and rat-tail collagen-coated Falcon multiple insert plate. Twenty-four hours after seeding media were change with DMEM supplemented with FBS with DMEM supplemented with FBS in non-coated inert wells whereas the media in rat-tail collagen-coated wells were changed with Kinetana base media supplemented with 5 μM of Ro31-8220 and 5 mM of sodium butyrate. Forty-eight hours after medium change, SCBN cells were lysed with ⅕ strength of Tris buffered saline on ice and the whole cell lysate was assayed for enzyme activity by incubating the cell lysate with specific substrate for 60 minutes at 37° C. […]
# [5] = test system: monolayers of the invention (Kinetana cell line); test: Permeability across monolayers of the invention; format: in vitro ADME, human
# Text: (§2) (He, Murby et al. 1998) relate the permeability profile of PEG oligomers to tight junction pore size. Their data in CaCo-2 correspond very closely to Kinetana's data with Caco-2, in that there is a steep drop-off in permeability between molecular weights 200 and 450, then a leveling off. The invention permeability, in contrast, declines slowly and continuously from MW 200 to over 1,000 Da (FIG. 3).
# (§3) The bioavailability of PEG 900 is reported to be 10% (Yee 1997).
# [6] = test system: Caco-2; test: Permeability across CaCo-2 monolayers; format: in vitro ADME, human
# Text: as §2, §3
# [7] = test system: Kinetana cells using the Buret growth condition; test: Permeability in Kinetana cells using the Buret growth condition; format: in vitro ADME, human
# Text: The proprietary growth conditions result in a different paracellular diffusion performance of the Kinetana cell line compared with CaCo-2 and T-84 human colon cancer cell lines (He, Murby et al. 1998) and also SCBN with the Buret condition. The proprietary condition correlates better with human paracellular marker permeability, and this appears to relate to the differences in tight junction pore size between the new method and the others. The evidence for these claims is as follows.
# as §3
# [8] = Yee 1997; cited from earlier work
# [9] = apical side (pre-absorption), six commercial ginkgo extract samples
# [10] = basal side (absorbed ingredients), six commercial ginkgo extract samples
compound,measurement,setting,value
CC(C)(C)[C@]1(O)CC2OC(=O)CC23C(=O)OC2OC(=O)[C@H](O)C231 (some centres unmarked) [Bilobalide],"Ginkgo terpene lactone components ratio to Ginkgolide A, Apical side Mean",[1]; [9],0.66
same,"Ginkgo terpene lactone components ratio to Ginkgolide A, Basal side Mean",[1]; [10],0.44
C[C@@H]1C(=O)O[C@H]2C[C@@]34[C@H]5C[C@@H](C(C)(C)C)[C@]36[C@@H](OC(=O)[C@@H]6O)O[C@@]4(C(=O)O5)[C@]21O [Ginkgolide A],"Ginkgo terpene lactone components ratio to Ginkgolide A, Apical side Mean",[1]; [9],1.00
same,"Ginkgo terpene lactone components ratio to Ginkgolide A, Basal side Mean",[1]; [10],1.00
CC1C(=O)OC2C(O)C34C5CC(C(C)(C)C)C36C(OC(=O)C6O)OC4(C(=O)O5)C12O (centres unmarked) [Ginkgolide B],"Ginkgo terpene lactone components ratio to Ginkgolide A, Apical side Mean",[1]; [9],0.20
same,"Ginkgo terpene lactone components ratio to Ginkgolide A, Basal side Mean",[1]; [10],0.12
"Cn1cc(C2=C(c3cn(CCCSC(=N)N)c4ccccc34)C(=O)NC2=O)c2ccccc21 [Ro31-8220, 2-{1-[3-(amidinothio)propyl]-1H-indol-3-yl}-3-(1-meethylindol-3-yl)-maleimide methanesulfonate]",TEER value,[2],about 680 ohm.cm^2
same,length of microvilli,[3],did not measurably increase
same,percentage of cells with long microvilli,[3]; compared with base medium,did not measurably increase
same,expression of alkaline phosphatase activity,[4],up-regulate
C[C@@H]1O[C@@H](OC[C@H]2O[C@@H](Oc3c(-c4ccc(O)c(O)c4)oc4cc(O)cc(O)c4c3=O)[C@H](O)[C@@H](O)[C@@H]2O)[C@H](O)[C@H](O)[C@H]1O [Rutin],"Ginkgo intact flavone components ratio to Rutin, Apical Mean",[1]; [9],1.00
same,"Ginkgo intact flavone components ratio to Rutin, basal Mean",[1]; [10],1.00
CCCC(=O)[O-].[Na+] [sodium butyrate],TEER value,[2],about 175 ohm.cm^2
same,length of microvilli,[3],< 0.1 um
Ginkgolide C,"Ginkgo terpene lactone components ratio to Ginkgolide A, Apical side Mean",[1]; [9],0.32
same,"Ginkgo terpene lactone components ratio to Ginkgolide A, Basal side Mean",[1]; [10],0.20
Ginkgolide J,"Ginkgo terpene lactone components ratio to Ginkgolide A, Apical side Mean",[1],0.86
same,"Ginkgo terpene lactone components ratio to Ginkgolide A, Basal side Mean",[1],0.55
PEG 900,permeability,[5]; conditions of the invention,~1 ×10⁻⁶ cm/s
same,predicted human bioavailability,[5]; predicted from permeability under conditions of the invention,around 12%
same,permeability,[6],too low to be measured
same,permeability,[7],too low to be measured
same,bioavailability (reported),[8],10%
